Experimental data as given in patent US9321773B2, “Compounds” (Respivert Ltd, priority 2009, dated 2016).
pIC50: −log10 of the molar value. Where two headings read alike, the source gives them in different places.

Experiments:
[1] = test system: H2O2 induced pAkt in D-U937 cells; test: PI3Kδ Cell Based Assay (H2O2 induced pAkt); settings: Homo sapiens, dU937; for pIC50: activity range, D-U937 cells, read-out: Cellular Activity IC50 values (H2O2 induced pAkt D-U937 Cells); for IC50: read-out: Cellular Activity IC50 values (H2O2 induced pAkt (nM) D-U937 Cells)
Procedure, shortened: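 U937 cells differentiated to macrophage-type cells with PMA (100 ng/mL, 48 to 72 hr), then stimulated with H2O2. pAkt and total Akt detected by antibody-based immunoassay. Ratio of pAkt to total Akt signal used; IC50 from concentration-response curves of serially diluted compounds.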

recombinant PI3 kinase δ = recombinant PI3 kinase δ (Homo sapiens (Human), UniProt O00329); test: Enzyme Inhibition Assay (HTRF PI3K enzyme assay, TR-FRET); type: biochemical; settings: for pIC50: activity range, read-out: PI3 Kinase Inhibition IC50 values at stated Isozyme δ; for IC50: read-out: PI3 Kinase Inhibition IC50 values at stated Isozyme (nM) δ
recombinant PI3 kinase δ, sequence (O00329 whole entry, the tested form may be a part): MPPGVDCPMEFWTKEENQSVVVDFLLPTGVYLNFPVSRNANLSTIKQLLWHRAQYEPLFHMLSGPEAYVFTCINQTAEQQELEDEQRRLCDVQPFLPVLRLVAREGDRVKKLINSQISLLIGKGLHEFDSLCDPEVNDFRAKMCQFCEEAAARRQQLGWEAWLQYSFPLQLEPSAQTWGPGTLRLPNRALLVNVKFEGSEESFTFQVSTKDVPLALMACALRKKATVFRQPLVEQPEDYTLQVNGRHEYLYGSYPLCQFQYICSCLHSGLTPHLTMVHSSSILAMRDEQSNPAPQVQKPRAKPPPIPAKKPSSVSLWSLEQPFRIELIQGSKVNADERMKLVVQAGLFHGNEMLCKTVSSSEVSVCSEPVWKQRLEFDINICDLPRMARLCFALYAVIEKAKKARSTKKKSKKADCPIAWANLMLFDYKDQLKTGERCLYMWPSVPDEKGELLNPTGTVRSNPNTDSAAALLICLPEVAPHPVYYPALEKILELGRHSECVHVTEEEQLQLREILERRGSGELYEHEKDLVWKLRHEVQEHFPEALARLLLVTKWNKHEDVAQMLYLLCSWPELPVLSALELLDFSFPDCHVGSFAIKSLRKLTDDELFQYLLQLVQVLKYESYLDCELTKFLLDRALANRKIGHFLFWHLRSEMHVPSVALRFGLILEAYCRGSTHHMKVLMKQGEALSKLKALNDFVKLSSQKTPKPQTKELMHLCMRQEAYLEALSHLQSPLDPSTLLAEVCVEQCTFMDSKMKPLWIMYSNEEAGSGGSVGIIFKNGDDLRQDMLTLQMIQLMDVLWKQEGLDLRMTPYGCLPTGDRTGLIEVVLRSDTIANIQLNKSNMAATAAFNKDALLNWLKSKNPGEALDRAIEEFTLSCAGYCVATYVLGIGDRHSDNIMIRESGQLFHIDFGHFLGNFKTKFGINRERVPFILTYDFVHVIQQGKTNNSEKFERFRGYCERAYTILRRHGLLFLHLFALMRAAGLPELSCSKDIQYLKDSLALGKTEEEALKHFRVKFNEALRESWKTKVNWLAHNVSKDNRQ
recombinant PI3 kinase δ, sequence (P27986 whole entry partner, the tested form may be a part): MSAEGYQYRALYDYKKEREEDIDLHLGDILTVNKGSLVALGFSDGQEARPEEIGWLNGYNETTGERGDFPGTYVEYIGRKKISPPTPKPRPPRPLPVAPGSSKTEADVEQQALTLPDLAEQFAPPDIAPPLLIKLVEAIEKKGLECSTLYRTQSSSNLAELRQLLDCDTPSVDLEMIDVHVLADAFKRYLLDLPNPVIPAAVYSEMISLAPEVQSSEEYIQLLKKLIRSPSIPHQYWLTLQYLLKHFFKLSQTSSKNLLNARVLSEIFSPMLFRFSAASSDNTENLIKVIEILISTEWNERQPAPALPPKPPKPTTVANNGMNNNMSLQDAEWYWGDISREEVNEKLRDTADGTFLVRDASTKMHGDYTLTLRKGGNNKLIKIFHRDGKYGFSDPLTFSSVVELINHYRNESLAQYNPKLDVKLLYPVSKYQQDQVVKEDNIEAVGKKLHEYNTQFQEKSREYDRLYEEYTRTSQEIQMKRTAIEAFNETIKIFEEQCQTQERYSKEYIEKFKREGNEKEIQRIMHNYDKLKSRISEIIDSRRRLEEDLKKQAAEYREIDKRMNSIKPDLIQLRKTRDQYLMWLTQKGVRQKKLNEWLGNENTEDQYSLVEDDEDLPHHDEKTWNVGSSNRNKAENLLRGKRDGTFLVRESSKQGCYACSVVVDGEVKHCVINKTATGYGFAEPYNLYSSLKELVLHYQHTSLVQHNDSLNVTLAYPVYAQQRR
Procedure, shortened: (§1)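 Recombinant PI3Kα, δ or γ incubated with PIP2 substrate and compound for 2 hr at RT. Stop solution with biotin-PIP3 and GST-GRP1 PH domain/Eu-anti-GST/SA-APC detection mix added, then 15-18 hr at RT. PIP3 formed reduces the TR-FRET signal.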

recombinant PI3 kinase α = recombinant PI3 kinase α (Homo sapiens (Human), UniProt P42336); test: as above; type: biochemical; settings: for pIC50: activity range, read-out: PI3 Kinase Inhibition IC50 values at stated Isozyme α; for IC50: read-out: PI3 Kinase Inhibition IC50 values at stated Isozyme (nM) α
recombinant PI3 kinase α, sequence (P42336 whole entry): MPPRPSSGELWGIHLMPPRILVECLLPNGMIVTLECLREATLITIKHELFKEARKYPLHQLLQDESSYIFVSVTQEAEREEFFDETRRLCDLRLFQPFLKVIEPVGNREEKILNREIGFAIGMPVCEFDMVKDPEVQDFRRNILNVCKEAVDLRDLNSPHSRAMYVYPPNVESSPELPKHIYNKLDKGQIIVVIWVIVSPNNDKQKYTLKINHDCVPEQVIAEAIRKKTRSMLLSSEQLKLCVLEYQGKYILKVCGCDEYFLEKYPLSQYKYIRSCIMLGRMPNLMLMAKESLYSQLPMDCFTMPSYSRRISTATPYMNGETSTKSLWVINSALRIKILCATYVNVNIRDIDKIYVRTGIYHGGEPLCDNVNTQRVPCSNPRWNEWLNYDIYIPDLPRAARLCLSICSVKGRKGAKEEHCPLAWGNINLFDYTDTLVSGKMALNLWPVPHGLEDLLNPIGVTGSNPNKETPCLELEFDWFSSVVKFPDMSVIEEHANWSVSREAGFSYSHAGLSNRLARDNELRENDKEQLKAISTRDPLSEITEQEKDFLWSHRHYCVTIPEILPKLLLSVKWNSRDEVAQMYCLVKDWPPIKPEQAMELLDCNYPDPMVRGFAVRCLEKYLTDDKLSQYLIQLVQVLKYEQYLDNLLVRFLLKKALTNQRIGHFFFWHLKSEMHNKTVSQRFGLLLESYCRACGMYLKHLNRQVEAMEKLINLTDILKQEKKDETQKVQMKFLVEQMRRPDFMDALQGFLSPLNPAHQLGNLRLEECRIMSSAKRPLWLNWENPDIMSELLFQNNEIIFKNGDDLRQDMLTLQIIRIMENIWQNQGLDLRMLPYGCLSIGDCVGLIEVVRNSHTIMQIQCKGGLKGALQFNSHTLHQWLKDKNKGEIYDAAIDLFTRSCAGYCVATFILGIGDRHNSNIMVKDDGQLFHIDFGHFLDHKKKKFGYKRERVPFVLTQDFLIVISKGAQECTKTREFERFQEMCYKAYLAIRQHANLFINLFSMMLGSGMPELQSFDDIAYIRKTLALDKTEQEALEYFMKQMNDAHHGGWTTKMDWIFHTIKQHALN
recombinant PI3 kinase α, sequence (P27986 whole entry partner): as the sequence (P27986 whole entry partner, the tested form may be a part) above
Procedure, shortened: as §1

recombinant PI3 kinase γ = recombinant PI3 kinase γ (Homo sapiens (Human), UniProt P48736); test: as above; type: biochemical; settings: for pIC50: activity range, read-out: PI3 Kinase Inhibition IC50 values at stated Isozyme γ; for IC50: read-out: PI3 Kinase Inhibition IC50 values at stated Isozyme (nM) γ
recombinant PI3 kinase γ, sequence (P48736 whole entry): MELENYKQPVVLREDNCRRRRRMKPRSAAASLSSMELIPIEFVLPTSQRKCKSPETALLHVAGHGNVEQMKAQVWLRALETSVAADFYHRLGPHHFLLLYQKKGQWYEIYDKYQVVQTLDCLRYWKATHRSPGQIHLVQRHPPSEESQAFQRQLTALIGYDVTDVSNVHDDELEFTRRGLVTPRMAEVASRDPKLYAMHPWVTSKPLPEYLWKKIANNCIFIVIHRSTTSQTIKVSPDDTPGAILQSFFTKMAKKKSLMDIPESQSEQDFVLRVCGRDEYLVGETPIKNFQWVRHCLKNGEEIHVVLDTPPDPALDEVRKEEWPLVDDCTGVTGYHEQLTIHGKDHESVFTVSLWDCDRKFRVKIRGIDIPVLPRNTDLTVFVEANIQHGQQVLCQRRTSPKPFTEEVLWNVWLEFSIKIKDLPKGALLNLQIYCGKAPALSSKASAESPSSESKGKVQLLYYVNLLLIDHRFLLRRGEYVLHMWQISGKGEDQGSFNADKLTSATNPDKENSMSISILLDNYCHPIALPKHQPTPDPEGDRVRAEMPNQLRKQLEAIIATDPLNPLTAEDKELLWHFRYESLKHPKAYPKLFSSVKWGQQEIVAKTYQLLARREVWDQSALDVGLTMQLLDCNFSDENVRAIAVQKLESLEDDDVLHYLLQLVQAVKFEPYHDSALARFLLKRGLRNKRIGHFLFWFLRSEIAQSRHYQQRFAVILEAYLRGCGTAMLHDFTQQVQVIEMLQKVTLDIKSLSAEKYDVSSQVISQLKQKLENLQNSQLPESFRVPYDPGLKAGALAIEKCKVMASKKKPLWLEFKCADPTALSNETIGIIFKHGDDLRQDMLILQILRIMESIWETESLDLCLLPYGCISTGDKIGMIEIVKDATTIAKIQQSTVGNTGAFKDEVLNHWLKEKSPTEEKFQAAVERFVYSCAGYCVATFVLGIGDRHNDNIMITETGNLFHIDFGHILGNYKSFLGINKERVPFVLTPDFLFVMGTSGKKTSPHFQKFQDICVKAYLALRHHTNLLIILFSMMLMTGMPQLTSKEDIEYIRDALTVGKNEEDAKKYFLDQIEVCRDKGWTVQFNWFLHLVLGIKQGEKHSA
Procedure, shortened: as §1

[2] = test system: PMA-differentiated U937 cells; test: MTT Assay (cell viability); type: cell-based, Human; settings: percentage loss of cell viability; for Cell Viability MTT Assay in D-U937 cells at 4 hr: 4 hr in 5% FCS; for Cell Viability MTT Assay in D-U937 cells at 24 hr: 24 hr in 10% FCS
Procedure, shortened: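 Differentiated U937 cells treated with compound for 4 hr (5% FCS) or 24 hr (10% FCS), then given MTT for 1 hr; formazan dissolved in DMSO and absorbance read at 550 nm. Viability loss expressed as % versus 0.5% DMSO vehicle.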

CC(=O)N1CCN(C(=O)CCCC#Cc2cccc3nc(Cn4nc(-c5ccc(O)cc5)c5c(N)ncnc54)n(Cc4ccccc4Cl)c(=O)c23)CC1 [Example 71]
pIC50 [1]: > 8.00
pIC50 (recombinant PI3 kinase δ): > 7.30
pIC50 (recombinant PI3 kinase α): 6.00 to 7.30
pIC50 (recombinant PI3 kinase γ): > 7.30
Cell Viability MTT Assay in D-U937 cells at 4 hr [2]: − (− <30%)
Cell Viability MTT Assay in D-U937 cells at 24 hr [2]: − (− <30%)

Nc1ncnc2c1c(-c1cccc(O)c1)nn2Cc1nc2cccc(C#CCCNC(=O)N3CCOCC3)c2c(=O)n1Cc1ccccc1Cl [Example 72, N-(4-(2-((4-Amino-3-(3-hydroxyphenyl)-1H-pyrazolo[3,4-d]pyrimidin-1-yl)methyl)-3-(2-chlorobenzyl)-4-oxo-3,4-dihydroquinazolin-5-yl)but-3-yn-1-yl)morpholine-4-carboxamide]
pIC50 [1]: > 8.00
pIC50 (recombinant PI3 kinase δ): > 7.30
pIC50 (recombinant PI3 kinase α): 6.00 to 7.30
pIC50 (recombinant PI3 kinase γ): > 7.30
Cell Viability MTT Assay in D-U937 cells at 4 hr [2]: − (− <30%)
Cell Viability MTT Assay in D-U937 cells at 24 hr [2]: − (− <30%)

COCCN(CCCC#Cc1cccc2nc(Cn3nc(-c4ccc(O)cc4)c4c(N)ncnc43)n(Cc3ccccc3Cl)c(=O)c12)CCOC [Example 73, 2-((4-Amino-3-(4-hydroxyphenyl)-1H-pyrazolo[3,4-d]pyrimidin-1-yl)methyl)-5-(5-(bis(2-methoxyethyl)amino)pent-1-ynyl)-3-(2-chlorobenzyl)quinazolin-4(3H)-one]
pIC50 [1]: > 8.00
pIC50 (recombinant PI3 kinase δ): > 7.30
pIC50 (recombinant PI3 kinase α): 6.00 to 7.30
pIC50 (recombinant PI3 kinase γ): > 7.30
Cell Viability MTT Assay in D-U937 cells at 4 hr [2]: − (− <30%)
Cell Viability MTT Assay in D-U937 cells at 24 hr [2]: − (− <30%)

Nc1ncnc2c1c(-c1ccc(O)cc1)nn2Cc1nc2cccc(C#CCCCC(=O)NC3CCOCC3)c2c(=O)n1Cc1ccccc1Cl [Example 75, 6-(2-((4-Amino-3-(4-hydroxyphenyl)-1H-pyrazolo[3,4-d]pyrimidin-1-yl)methyl)-3-(2-chlorobenzyl)-4-oxo-3,4-dihydroquinazolin-5-yl)-N-(tetrahydro-2H-pyran-4-yl) hex-5-ynamide]
pIC50 [1]: > 8.00
pIC50 (recombinant PI3 kinase δ): > 7.30
pIC50 (recombinant PI3 kinase α): 6.00 to 7.30
pIC50 (recombinant PI3 kinase γ): > 7.30
Cell Viability MTT Assay in D-U937 cells at 4 hr [2]: − (− <30%)
Cell Viability MTT Assay in D-U937 cells at 24 hr [2]: − (− <30%)

Nc1ncnc2c1c(-c1ccc(O)cc1)nn2Cc1nc2cccc(C#CCCCC(=O)NCCN3CCOCC3)c2c(=O)n1Cc1ccccc1Cl [Example 76, 6-(2-((4-Amino-3-(4-hydroxyphenyl)-1H-pyrazolo[3,4-d]pyrimidin-1-yl)methyl)-3-(2-chlorobenzyl)-4-oxo-3,4-dihydroquinazolin-5-yl)-N-(2-morpholinoethyl)hex-5-ynamide]
pIC50 [1]: > 8.00
pIC50 (recombinant PI3 kinase δ): > 7.30
pIC50 (recombinant PI3 kinase α): 6.00 to 7.30
pIC50 (recombinant PI3 kinase γ): > 7.30
Cell Viability MTT Assay in D-U937 cells at 4 hr [2]: − (− <30%)
Cell Viability MTT Assay in D-U937 cells at 24 hr [2]: − (− <30%)

COCCN1CCN(C(=O)CCCC#Cc2cccc3nc(Cn4nc(-c5ccc(O)cc5)c5c(N)ncnc54)n(Cc4ccccc4Cl)c(=O)c23)CC1 [Example 77, 2-((4-Amino-3-(4-hydroxyphenyl)-1H-pyrazolo[3,4-d]pyrimidin-1-yl)methyl)-3-(2-chlorobenzyl)-5-(6-(4-(2-methoxyethyl)piperazin-1-yl)-6-oxohex-1-ynyl) quinazolin-4(3H)-one]
pIC50 [1]: > 8.00
pIC50 (recombinant PI3 kinase δ): > 7.30
pIC50 (recombinant PI3 kinase α): 6.00 to 7.30
pIC50 (recombinant PI3 kinase γ): > 7.30
Cell Viability MTT Assay in D-U937 cells at 4 hr [2]: − (− <30%)
Cell Viability MTT Assay in D-U937 cells at 24 hr [2]: − (− <30%)

CN(C)CCNC(=O)CCCC#Cc1cccc2nc(Cn3nc(-c4ccc(O)cc4)c4c(N)ncnc43)n(Cc3ccccc3Cl)c(=O)c12 [Example 78, 6-(2-((4-Amino-3-(4-hydroxyphenyl)-1H-pyrazolo[3,4-d]pyrimidin-1-yl)methyl)-3-(2-chlorobenzyl)-4-oxo-3,4-dihydroquinazolin-5-yl)-N-(2-(dimethylamino)ethyl) hex-5-ynamide]
pIC50 [1]: > 8.00
pIC50 (recombinant PI3 kinase δ): > 7.30
pIC50 (recombinant PI3 kinase α): 6.00 to 7.30
pIC50 (recombinant PI3 kinase γ): > 7.30
Cell Viability MTT Assay in D-U937 cells at 4 hr [2]: − (− <30%)
Cell Viability MTT Assay in D-U937 cells at 24 hr [2]: − (− <30%)

Nc1ncnc2c1c(-c1ccc(O)cc1)nn2Cc1nc2cccc(C#CCCCC(=O)Nc3ccncc3)c2c(=O)n1Cc1ccccc1Cl [Example 79, 6-(2-((4-Amino-3-(4-hydroxyphenyl)-1H-pyrazolo[3,4-d]pyrimidin-1-yl)methyl)-3-(2-chlorobenzyl)-4-oxo-3,4-dihydroquinazolin-5-yl)-N-(pyridin-4-yl)hex-5-ynamide]
pIC50 [1]: > 8.00
pIC50 (recombinant PI3 kinase δ): > 7.30
pIC50 (recombinant PI3 kinase α): 6.00 to 7.30
pIC50 (recombinant PI3 kinase γ): 6.00 to 7.30
Cell Viability MTT Assay in D-U937 cells at 4 hr [2]: − (− <30%)
Cell Viability MTT Assay in D-U937 cells at 24 hr [2]: − (− <30%)

CN(C)C1CCN(C(=O)CCCC#Cc2cccc3nc(Cn4nc(-c5ccc(O)cc5)c5c(N)ncnc54)n(Cc4ccccc4Cl)c(=O)c23)CC1 [Example 81, 2-((4-Amino-3-(4-hydroxyphenyl)-1H-pyrazolo[3,4-d]pyrimidin-1-yl)methyl)-3-(2-chlorobenzyl)-5-(6-(4-(dimethylamino)piperidin-1-yl)-6-oxohex-1-ynyl) quinazolin-4(3H)-one]
pIC50 [1]: > 8.00
pIC50 (recombinant PI3 kinase δ): > 7.30
pIC50 (recombinant PI3 kinase α): 6.00 to 7.30
pIC50 (recombinant PI3 kinase γ): 6.00 to 7.30
Cell Viability MTT Assay in D-U937 cells at 4 hr [2]: − (− <30%)
Cell Viability MTT Assay in D-U937 cells at 24 hr [2]: − (− <30%)

COCCN(CCOC)C(=O)CCCC#Cc1cccc2nc(Cn3nc(-c4ccc(O)cc4)c4c(N)ncnc43)n(Cc3ccccc3Cl)c(=O)c12 [Example 82, 6-(2-((4-Amino-3-(4-hydroxyphenyl)-1H-pyrazolo[3,4-d]pyrimidin-1-yl)methyl)-3-(2-chlorobenzyl)-4-oxo-3,4-dihydroquinazolin-5-yl)-N,N-bis(2-methoxyethyl)hex-5-ynamide]
pIC50 [1]: > 8.00
pIC50 (recombinant PI3 kinase δ): > 7.30
pIC50 (recombinant PI3 kinase α): 6.00 to 7.30
pIC50 (recombinant PI3 kinase γ): > 7.30
Cell Viability MTT Assay in D-U937 cells at 4 hr [2]: − (− <30%)
Cell Viability MTT Assay in D-U937 cells at 24 hr [2]: − (− <30%)

CC(C)NC(=O)CCCC#Cc1cccc2nc(Cn3nc(-c4ccc(O)cc4)c4c(N)ncnc43)n(Cc3ccccc3Cl)c(=O)c12 [Example 86, 6-(2-((4-Amino-3-(4-hydroxyphenyl)-1H-pyrazolo[3,4-d]pyrimidin-1-yl)methyl)-3-(2-chlorobenzyl)-4-oxo-3,4-dihydroquinazolin-5-yl)-N-isopropylhex-5-ynamide]
pIC50 [1]: > 8.00
IC50 [1]: 0.41 nM
pIC50 (recombinant PI3 kinase δ): > 7.30
IC50 (recombinant PI3 kinase δ): 36 nM
pIC50 (recombinant PI3 kinase α): > 7.30
IC50 (recombinant PI3 kinase α): 27 nM
pIC50 (recombinant PI3 kinase γ): > 7.30
IC50 (recombinant PI3 kinase γ): 22 nM
Cell Viability MTT Assay in D-U937 cells at 4 hr [2]: − (− <30%)
Cell Viability MTT Assay in D-U937 cells at 24 hr [2]: − (− <30%)

CN(C)C(=O)CCCC#Cc1cccc2nc(Cn3nc(-c4ccc(O)cc4)c4c(N)ncnc43)n(Cc3ccccc3Cl)c(=O)c12 [Example 88, 6-(2-((4-Amino-3-(4-hydroxyphenyl)-1H-pyrazolo[3,4-d]pyrimidin-1-yl)methyl)-3-(2-chlorobenzyl)-4-oxo-3,4-dihydroquinazolin-5-yl)-N,N-dimethylhex-5-ynamide]
pIC50 [1]: > 8.00
pIC50 (recombinant PI3 kinase δ): > 7.30
pIC50 (recombinant PI3 kinase α): 6.00 to 7.30
pIC50 (recombinant PI3 kinase γ): > 7.30
Cell Viability MTT Assay in D-U937 cells at 4 hr [2]: − (− <30%)
Cell Viability MTT Assay in D-U937 cells at 24 hr [2]: − (− <30%)

Nc1ncnc2c1c(-c1ccc(O)cc1)nn2Cc1nc2cccc(C#CCCCC(=O)N3CCCC3)c2c(=O)n1Cc1ccccc1Cl [Example 89, 2-((4-Amino-3-(4-hydroxyphenyl)-1H-pyrazolo[3,4-d]pyrimidin-1-yl)methyl)-3-(2-chlorobenzyl)-5-(6-oxo-6-(pyrrolidin-1-yl)hex-1-yn-1-yl)quinazolin-4(3H)-one]
pIC50 [1]: > 8.00
IC50 [1]: 0.2 nM
pIC50 (recombinant PI3 kinase δ): > 7.30
IC50 (recombinant PI3 kinase δ): 3 nM
pIC50 (recombinant PI3 kinase α): < 6.00
IC50 (recombinant PI3 kinase α): 1490 nM
pIC50 (recombinant PI3 kinase γ): > 7.30
IC50 (recombinant PI3 kinase γ): 47 nM
Cell Viability MTT Assay in D-U937 cells at 4 hr [2]: − (− <30%)
Cell Viability MTT Assay in D-U937 cells at 24 hr [2]: − (− <30%)

CN(C)C1CCN(C(=O)CCCC#Cc2cccc3nc(Cn4nc(-c5ccc(O)cc5)c5c(N)ncnc54)n(Cc4ccccc4Cl)c(=O)c23)C1 (centres unmarked) [Example 91, 2-((4-Amino-3-(4-hydroxyphenyl)-1H-pyrazolo[3,4-d]pyrimidin-1-yl)methyl)-3-(2-chlorobenzyl)-5-(6-(3-(dimethylamino)pyrrolidin-1-yl)-6-oxohex-1-ynyl) quinazolin-4(3H)-one]
pIC50 [1]: > 8.00
pIC50 (recombinant PI3 kinase δ): > 7.30
pIC50 (recombinant PI3 kinase α): 6.00 to 7.30
pIC50 (recombinant PI3 kinase γ): > 7.30
Cell Viability MTT Assay in D-U937 cells at 4 hr [2]: − (− <30%)
Cell Viability MTT Assay in D-U937 cells at 24 hr [2]: − (− <30%)
